Laboratory results published in ChEMBL document CHEMBL3769371, “1-[(2E)-3-Phenylprop-2-enoyl]-1H-benzimidazoles as anticancer agents: synthesis, crystal structure analysis and binding studies of the most potent anticancer molecule with serum albumin” (Medchemcomm, 2015).

Tests used:
[1] = Cytotoxicity against human HL-60(TB) cells assessed as cell growth at 10^-5 M after 48 hrs by SRB assay; type: functional; conditions: HL-60, 48 h, read-out: Activity
[2] = Cytotoxicity against human RPMI8226 cells assessed as cell growth at 10^-5 M after 48 hrs by SRB assay; type: functional; conditions: RPMI-8226, 48 h, read-out: Activity
[3] = Cytotoxicity against human HOP62 cells assessed as cell growth at 10^-5 M after 48 hrs by SRB assay; type: functional; conditions: HOP-62, 48 h, read-out: Activity
[4] = Cytotoxicity against human HOP92 cells assessed as cell growth at 10^-5 M after 48 hrs by SRB assay; type: functional; conditions: HOP-92, 48 h, read-out: Activity
[5] = test system: NCI-H226; test: Cytotoxicity against human NCI-H226 cells assessed as cell growth at 10^-5 M after 48 hrs by SRB assay; type: functional; conditions: NCI-H226, 48 h, read-out: Activity
[6] = Cytotoxicity against human SW620 cells assessed as cell growth at 10^-5 M after 48 hrs by SRB assay; type: functional; conditions: SW-620, 48 h, read-out: Activity
[7] = Cytotoxicity against human SNB19 cells assessed as cell growth at 10^-5 M after 48 hrs by SRB assay; type: functional; conditions: SNB-19, 48 h, read-out: Activity
[8] = Cytotoxicity against human SNB75 cells assessed as cell growth at 10^-5 M after 48 hrs by SRB assay; type: functional; conditions: SNB-75, 48 h, read-out: Activity
[9] = Cytotoxicity against human UACC257 cells assessed as cell growth at 10^-5 M after 48 hrs by SRB assay; type: functional; conditions: UACC-257, 48 h, read-out: Activity
[10] = Cytotoxicity against human IGROV1 cells assessed as cell growth at 10^-5 M after 48 hrs by SRB assay; type: functional; conditions: IGROV-1, 48 h, read-out: Activity
[11] = Cytotoxicity against human Caki1 cells assessed as cell growth at 10^-5 M after 48 hrs by SRB assay; type: functional; conditions: CAKI-1, 48 h, read-out: Activity
[12] = Cytotoxicity against human TK10 cells assessed as cell growth at 10^-5 M after 48 hrs by SRB assay; type: functional; conditions: TK-10, 48 h, read-out: Activity
[13] = Cytotoxicity against human PC3 cells assessed as cell growth at 10^-5 M after 48 hrs by SRB assay; type: functional; conditions: PC-3, 48 h, read-out: Activity
[14] = test system: MCF7; test: Cytotoxicity against human MCF7 cells assessed as cell growth at 10^-5 M after 48 hrs by SRB assay; type: functional; conditions: MCF7, 48 h, read-out: Activity
[15] = Cytotoxicity against human Hs 578T cells assessed as cell growth at 10^-5 M after 48 hrs by SRB assay; type: functional; conditions: read-out: Activity
[16] = test system: K562; test: Cytotoxicity against human K562 cells after 48 hrs by SRB assay; type: functional; conditions: K562, 48 h
[17] = Cytotoxicity against human MOLT4 cells after 48 hrs by SRB assay; type: functional; conditions: MOLT-4, 48 h
[18] = test system: NCI-H522; test: Cytotoxicity against human NCI-H522 cells after 48 hrs by SRB assay; type: functional; conditions: NCI-H522, 48 h
[19] = Cytotoxicity against human HCT116 cells after 48 hrs by SRB assay; type: functional; conditions: HCT-116, 48 h
[20] = test system: M14; test: Cytotoxicity against human M14 cells after 48 hrs by SRB assay; type: functional; conditions: M14, 48 h
[21] = test system: SK-MEL-2; test: Cytotoxicity against human SK-MEL-2 cells after 48 hrs by SRB assay; type: functional; conditions: SK-MEL-2, 48 h
[22] = Cytotoxicity against human OVCAR4 cells after 48 hrs by SRB assay; type: functional; conditions: OVCAR-4, 48 h
[23] = Cytotoxicity against human OVCAR8 cells after 48 hrs by SRB assay; type: functional; conditions: OVCAR-8, 48 h
[24] = Cytotoxicity against human NCI-ADR-RES cells after 48 hrs by SRB assay; type: functional
[25] = test system: 786-0; test: Cytotoxicity against human 786-0 cells after 48 hrs by SRB assay; type: functional; conditions: 786-0, 48 h
[26] = test system: A498; test: Cytotoxicity against human A498 cells after 48 hrs by SRB assay; type: functional; conditions: A498, 48 h
[27] = test system: SN12C; test: Cytotoxicity against human SN12C cells after 48 hrs by SRB assay; type: functional
[28] = Cytotoxicity against human UO31 cells after 48 hrs by SRB assay; type: functional; conditions: UO-31, 48 h
[29] = test system: T47D; test: Cytotoxicity against human T47D cells after 48 hrs by SRB assay; type: functional
[30] = test system: MDA-MB-468; test: Cytotoxicity against human MDA-MB-468 cells after 48 hrs by SRB assay; type: functional; conditions: MDA-MB-468, 48 h
[31] = molecular target: T1, Albumin (Homo sapiens, UniProt P02768); test: Binding affinity to human serum albumin at 0.25 to 2 uM at 303 K by fluorescence microscopic analysis in the presence of digitoxin; type: ADME; conditions: isolated protein
[32] = molecular target: T1, Albumin; test: Binding affinity to human serum albumin assessed Stern-Volmer quenching constant at 0.25 to 2 uM at 288 K by fluorescence microscopic analysis; type: ADME; conditions: isolated protein
[33] = molecular target: T1, Albumin; test: Binding affinity to human serum albumin at 0.25 to 2 uM at 288 K by fluorescence microscopic analysis; type: ADME; conditions: isolated protein
[34] = molecular target: T1, Albumin; test: Binding affinity to human serum albumin at 0.25 to 2 uM at 298 K by fluorescence microscopic analysis; type: ADME; conditions: isolated protein
[35] = molecular target: T1, Albumin; test: Binding affinity to human serum albumin at 0.25 uM at 303 K by fluorescence microscopic analysis in the presence of Zn2+; type: ADME; conditions: isolated protein
[36] = test system: K562; test: Antiproliferative activity against human K562 cells at 10'5 M; type: functional
[37] = Antiproliferative activity against human SKOV3 cells at 10'5 M; type: functional, SK-OV-3
[38] = Antiproliferative activity against human PC3 cells at 10'5 M; type: functional, PC-3
[39] = Antiproliferative activity against human HCC2998 cells at 10'5 M; type: functional, HCC 2998
[40] = Antiproliferative activity against human IGROV1 cells at 10'5 M; type: functional, IGROV-1
[41] = Antiproliferative activity against human DU145 cells at 10'5 M; type: functional, DU-145
[42] = read-out: LC50 (the source's name)

T1 sequence (P02768 whole entry): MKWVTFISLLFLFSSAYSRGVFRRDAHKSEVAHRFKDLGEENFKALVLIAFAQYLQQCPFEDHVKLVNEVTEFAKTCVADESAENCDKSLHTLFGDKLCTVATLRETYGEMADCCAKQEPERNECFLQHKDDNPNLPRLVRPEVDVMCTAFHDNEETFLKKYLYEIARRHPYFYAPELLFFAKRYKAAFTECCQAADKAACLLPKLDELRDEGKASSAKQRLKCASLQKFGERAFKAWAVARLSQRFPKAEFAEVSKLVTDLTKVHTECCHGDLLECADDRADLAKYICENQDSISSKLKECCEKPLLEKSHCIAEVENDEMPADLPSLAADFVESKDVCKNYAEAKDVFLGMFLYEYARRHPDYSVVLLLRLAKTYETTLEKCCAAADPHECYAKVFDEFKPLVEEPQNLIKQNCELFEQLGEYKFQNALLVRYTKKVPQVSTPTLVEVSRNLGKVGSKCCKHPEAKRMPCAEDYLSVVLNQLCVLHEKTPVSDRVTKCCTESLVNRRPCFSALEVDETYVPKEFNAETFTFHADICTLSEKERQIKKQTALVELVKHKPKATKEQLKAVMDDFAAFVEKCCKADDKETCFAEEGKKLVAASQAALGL

In the case of `O=C(/C=C/c1ccccc1)n1c(-c2ccc(Cl)cc2)nc2ccccc21`, the growth at 10 µM [1] is reported as -3.97%, the growth at 10 µM [2] is reported as -31.1% and the growth at 10 µM [3] is reported as -48.8%. For the same compound, the growth at 10 µM [4] was -39.4%, the growth at 10 µM [5] was -55.3% and the growth at 10 µM [6] was -55.1%. The growth at 10 µM [7] was 41.1%, the growth at 10 µM [8] was 18.1% and the growth at 10 µM [9] was -64.4%. The growth at 10 µM [10] was 10.4%, the growth at 10 µM [11] was -39.5% and the growth at 10 µM [12] was 18.6%. The growth at 10 µM [13] was 6.09%, the growth at 10 µM [14] was 10.3% and the growth at 10 µM [15] was 20%. The GI50 [16] was 2090 nM, the TGI [16] was 11.8 µM and the CC50 [16, 42] was greater than 100 µM. For the same compound, the GI50 [17] was 1130 nM, the TGI [17] was 6.73 µM and the CC50 [17, 42] was greater than 100 µM. It also gave a GI50 [18] of 1530 nM, a TGI [18] of 3.5 µM and a CC50 [18, 42] of 8.04 µM. For the same compound, the GI50 [19] was 1800 nM, the TGI [19] was 3.45 µM and the CC50 [19, 42] was 6.61 µM. It also gave a GI50 [20] of 1630 nM, a TGI [20] of 5.74 µM and a CC50 [20, 42] of 26 µM. The GI50 [21] was 1110 nM, the TGI [21] was 3.04 µM and the CC50 [21, 42] was 8.32 µM. The GI50 [22] was 1110 nM, the TGI [22] was 2640 nM and the CC50 [22, 42] was 6.29 µM. It also gave a GI50 [23] of 1740 nM, a TGI [23] of 4.21 µM and a CC50 [23, 42] of 10.5 µM. It also gave a GI50 [24] of 750 nM, a TGI [24] of 10.3 µM and a CC50 [24, 42] of 62.1 µM. The GI50 [25] was 2430 nM, the TGI [25] was 5.71 µM and the CC50 [25, 42] was 18 µM. For the same compound, the GI50 [26] was 2050 nM, the TGI [26] was 7.63 µM and the CC50 [26, 42] was 28.4 µM. It also gave a GI50 [27] of 1390 nM, a TGI [27] of 2760 nM and a CC50 [27, 42] of 5.46 µM. It also gave a GI50 [28] of 1100 nM, a TGI [28] of 3.55 µM and a CC50 [28, 42] of 12.9 µM. The GI50 [29] was 1730 nM, the TGI [29] was 7.68 µM and the CC50 [29, 42] was 57.5 µM. For the same compound, the GI50 [30] was 1520 nM, the TGI [30] was 4.32 µM and the CC50 [30, 42] was 23.7 µM. It also gave a K [31] of 5.73 ×10³ /M, a KSV [32] of 2.03 ×10⁵ L/mol and a K [33] of 2.24 ×10⁵ /mol. For the same compound, the K [34] was 3.2 ×10⁴ /mol, the K [35] was 2.26 ×10³ /mol and the “growth inhibition (GI)” value [36] was 60.22%. For the same compound, the “growth inhibition (GI)” value [37] was 76.05%, the “growth inhibition (GI)” value [38] was 93.91% and the “growth inhibition (GI)” value [39] was 94.92%. For the same compound, the “growth inhibition (GI)” value [40] was 89.62% and the “growth inhibition (GI)” value [41] was 88.87%.
